Laboratory results published in article PMC4268243 (Nuclear medicine and biology, 2014).
Entries after “also recorded” stand apart in the source; their conditions may differ. One block for each molecule: values may come before it.

What was measured:
[1] = tested on: A549 lung adenocarcinoma cells; experiment: Amino acid uptake and inhibition in A549 cells; type: cell-based, human; conditions: A549, 30 minutes incubation
[2] = tested on: DU145 androgen-independent prostate carcinoma cells; experiment: Amino acid uptake and inhibition in DU145 cells; type: cell-based, human; conditions: DU145, 30 minutes incubation
U87 glioblastoma cells = experiment: Amino acid uptake and inhibition in U87 cells; type: cell-based, human; conditions: U87, 30 minutes incubation
[3] = tested on: MDA MB468 estrogen-independent breast carcinoma cells; experiment: Amino acid uptake and inhibition in MDA MB468 cells; type: cell-based, human; conditions: MDA MB468, 30 minutes incubation
[4] = tested on: SKOV3 estrogen-positive ovarian adenocarcinoma cells; experiment: Amino acid uptake and inhibition in SKOV3 cells; type: cell-based, human; conditions: SKOV3, 30 minutes incubation
A549 tumor xenograft = experiment: Biodistribution in A549 tumor-bearing SCID mice; type: in vivo; conditions: listed as (R)-[^18F]MeFAMP 2
DU145 tumor xenograft = experiment: Biodistribution in DU145 tumor-bearing SCID mice; type: in vivo; conditions: listed as (R)-[^18F]MeFAMP 2
U87 tumor xenograft = experiment: Biodistribution in U87 tumor-bearing SCID mice; type: in vivo; conditions: listed as (R)-[^18F]MeFAMP 2
[5] = tested on: MDA MB468 tumor xenograft; experiment: Biodistribution in MDA MB468 tumor-bearing SCID mice; type: in vivo; conditions: listed as (R)-[^18F]MeFAMP 2
SKOV3 tumor xenograft = experiment: Biodistribution in SKOV3 tumor-bearing SCID mice; type: in vivo; conditions: listed as (R)-[^18F]MeFAMP 2
[6] = tested on: human A549, DU145, U87, MDA MB468 and SKOV3 tumor cells; experiment: Amino acid uptake and inhibition, summary over the five tumor cell lines; type: cell-based
[7] = tested on: SCID mice xenograft tumor models; type: in vivo; conditions: in most cases, over tumors and time points
[8] = Brain uptake of [18F]FET in nude mice; type: in vivo
[9] = tested on: rat orthotopic brain tumor model; conditions: rat model; cited from earlier work

SMILES: CN[C@@](C)(C[18F])C(=O)O [(R)-[^18F]2] [3-[^18F]fluoro-2-methyl-2-N-(methylamino)propanoic acid]
- Cell uptake ([1]; 10 mM BCH): 3.1±0.1 % ID/5×10^5 cells
- Cell uptake ([1]; 10 mM MeAIB): 0.4±0.04 % ID/5×10^5 cells
- Cell uptake ([1]; Control (no inhibitor)): 2.4±0.2 % ID/5×10^5 cells
- Cell uptake ([2]; 10 mM BCH): 1.9±0.1 % ID/5×10^5 cells
- Cell uptake ([2]; 10 mM MeAIB): 0.4±0.1 % ID/5×10^5 cells
- Cell uptake ([2]; Control (no inhibitor)): 1.5±0.2 % ID/5×10^5 cells
- Cell uptake (U87 glioblastoma cells; 10 mM BCH): 3.5±0.2 % ID/5×10^5 cells
- Cell uptake (U87 glioblastoma cells; 10 mM MeAIB): 0.6±0.1 % ID/5×10^5 cells
- Cell uptake (U87 glioblastoma cells; Control (no inhibitor)): 2.7±0.3 % ID/5×10^5 cells
- Cell uptake ([3]; 10 mM BCH): 1.5±0.2 % ID/5×10^5 cells
- Cell uptake ([3]; 10 mM MeAIB): 0.5±0.2 % ID/5×10^5 cells
- Cell uptake ([3]; Control (no inhibitor)): 1.4±0.1 % ID/5×10^5 cells
- Cell uptake ([4]; 10 mM BCH): 4.5±0.7 % ID/5×10^5 cells
- Cell uptake ([4]; 10 mM MeAIB): 0.5±0.2 % ID/5×10^5 cells
- Cell uptake ([4]; Control (no inhibitor)): 3.9±0.6 % ID/5×10^5 cells
- uptake in tumor (A549 tumor xenograft; 15 min post injection): 5.3±1.9 %ID/g
- uptake in liver (A549 tumor xenograft; 30 min post injection): 7.5±1.5 %ID/g
- uptake in spleen (A549 tumor xenograft; 30 min post injection): 9.8±1.3 %ID/g
- uptake in tumor (A549 tumor xenograft; 30 min post injection): 6.3±1.3 %ID/g
- uptake in liver (A549 tumor xenograft; 60 min post injection): 5.2±0.3 %ID/g
- uptake in liver (DU145 tumor xenograft; 15 min post injection): 7.8±1.2 %ID/g
- uptake in tumor (DU145 tumor xenograft; 15 min post injection): 5.2±1.2 %ID/g
- uptake in pancreas (DU145 tumor xenograft; 30 min post injection): 53±17 %ID/g
- uptake in spleen (DU145 tumor xenograft; 120 min post injection): 7.4±1.6 %ID/g
- uptake in pancreas (U87 tumor xenograft; 15 min post injection): 74±11 %ID/g
- uptake in tumor (U87 tumor xenograft; 30 min post injection): 5.9±1.1 %ID/g
- uptake in kidney (U87 tumor xenograft; 60 min post injection): 6.8±1.3 %ID/g
- uptake in liver (U87 tumor xenograft; 60 min post injection): 6.8±1.3 %ID/g
- uptake in tumor (U87 tumor xenograft; 60 min post injection): 5.8±0.8 %ID/g
- uptake in spleen (U87 tumor xenograft; 120 min post injection): 6.1±0.5 %ID/g
- uptake in pancreas ([5]; 15 min post injection): 59±3.3 %ID/g
- uptake in kidney ([5]; 60 min post injection): 5.9±0.8 %ID/g
- uptake in spleen ([5]; 120 min post injection): 6.6±0.8 %ID/g
- uptake in tumor (SKOV3 tumor xenograft; 60 min post injection): 7.5±1.8 %ID/g
- uptake in spleen (SKOV3 tumor xenograft; 120 min post injection): 6.8±0.6 %ID/g
- inhibition of uptake by BCH ([6]; 10 mM BCH, relative to control, most cell lines): no BCH inhibition was observed in most cases
- inhibition of uptake by MeAIB ([6]; 10 mM MeAIB, relative to control, most cell lines): 50-91%
- uptake in tumor cells ([6]; 30 minutes incubation, without inhibitors, range over the cell lines): 1-7 %ID/5×10^5 cells
- amino acid transport system mediating uptake / selectivity ([6]; AAT cell inhibition assays with MeAIB and BCH): high selectivity for system A AAT; also recorded: the most selective for system A transport
- ratio of tumor to muscle [7]: > 4

- fold higher brain uptake than [18F]1 ([8]; [18F]FET in nude mice vs [18F]1 in SCID mice): 2.5-3.5 fold
- fold higher brain uptake than [18F]2 ([8]; [18F]FET in nude mice vs [18F]2 in SCID mice): 7-14 fold
SMILES: N[C@@H](Cc1ccc(OCC[18F])cc1)C(=O)O [[^18F]FET, O-(2-[^18F]fluoroethyl)-L-tyrosine]

SMILES: NC1(C(=O)O)CC([18F])C1 (stereo not shown) [[^18F]FACBC, [18F]1-amino-3-fluorocyclobutane-1-carboxylic acid, reference compound]
- brain uptake [9]: 0.26±0.03 %ID/g
